Assay results reported in patent publication US6355799B1, “Substituted benzene compounds, process for their preparation, and herbicidal and defoliant compositions containing them” (ISK Americas Incorporated, priority 1997, dated 2002).

How the values were obtained:
Format in all cases: in vivo
[1] = test system: redroot pigweed (Amaranthus retroflexus, AMARE); assay: Pre-emerge test, greenhouse herbicide activity screening; conditions: rated 14 days after application, 0 = no damage, 100 = complete death
Outline: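 Rating: 0–100 visual injury, 14 DAA. Application: acetone, 187 l/ha, 15–1000 g ai/ha, flat-fan track sprayer with nozzle 40–45 cm above soil or canopy. Post-emerge runs used 0.25% v/v surfactant on 2–3 leaf plants.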

[2] = test system: barnyardgrass (Echinochloa crus-galli, ECHCG); assay: as above; conditions: rated 14 days after application, 0 = no damage, 100 = complete death
Outline: (§1)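 Fourteen days after spraying, crop and weed injury was graded visually from 0, no effect, to 100, every plant dead. Test substances were dissolved in acetone and applied at 15–1000 g ai/ha with a flat-fan nozzle. Application was either pre-emergence, one day after sowing, or post-emergence at the 2–3 leaf stage.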

[3] = test system: common ragweed (Ambrosia artemisizfolia L., AMBEL); assay: as above; conditions: rated 14 days after application, 0 = no damage, 100 = complete death
Outline: as §1

[4] = test system: green foxtail (Setaria viridis, SETVI); assay: as above; conditions: rated 14 days after application, 0 = no damage, 100 = complete death
Outline: as §1

[5] = test system: ivyleaf morningglory (Ipomoea hederacea, IPOHE); assay: as above; conditions: rated 14 days after application, 0 = no damage, 100 = complete death
Outline: as §1

[6] = test system: johnsongrass (Sorghum halepense, SORHA); assay: as above; conditions: rated 14 days after application, 0 = no damage, 100 = complete death
Outline: as §1

[7] = test system: lambsquarters (Chenopodium album, CHEAL); assay: as above; conditions: rated 14 days after application, 0 = no damage, 100 = complete death
Outline: as §1

[8] = test system: large crabgrass (Digitaria sanguinalis, DIGSA); assay: as above; conditions: rated 14 days after application, 0 = no damage, 100 = complete death
Outline: as §1

[9] = test system: sicklepod (Cassia obtusifolia, CASOB); assay: as above; conditions: rated 14 days after application, 0 = no damage, 100 = complete death
Outline: as §1

[10] = test system: velvetleaf (Abutilon theophrasti, ABUTH); assay: as above; conditions: rated 14 days after application, 0 = no damage, 100 = complete death
Outline: as §1

[11] = test system: field corn (Zea mays L., var. Dekalb 535, CORN); assay: Pre-emerge test, crop safety; conditions: rated 14 days after application, 0 = no damage, 100 = complete death
Outline: (§2)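 Herbicidal damage is scored 0 (none) to 100 (complete plant death) two weeks after a simulated field spray. Rates span 15–1000 g ai/ha, delivered in acetone at 187 l/ha. For post-emergence treatments, plants have 2–3 leaves and the spray carries 0.25% v/v non-ionic surfactant.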

[12] = test system: upland rice (Oryza sp., var. Tebonnet, RICE); assay: Pre-emerge test, crop safety; conditions: rated 14 days after application, 0 = no damage, 100 = complete death
Outline: as §2

[13] = test system: barnyardgrass (Echinochloa crus-galli, ECHCG); assay: Post-emerge test, greenhouse herbicide activity screening; conditions: post-emerge, 14 days after application, rating scale 0-100
Outline: (§3)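 Each test used a mechanized track sprayer delivering 187 l/ha of acetone solution at 15–1000 g ai/ha. Post-emerge foliage at 2–3 leaves was treated with added 0.25% v/v non-ionic surfactant and bottom-watered only. Injury was assessed on day 14, where 100 means total kill.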

[14] = test system: common ragweed (Ambrosia artemisizfolia L., AMBEL); assay: as above; conditions: post-emerge, 14 days after application, rating scale 0-100
Outline: as §3

[15] = test system: green foxtail (Setaria viridis, SETVI); assay: as above; conditions: post-emerge, 14 days after application, rating scale 0-100
Outline: as §3

[16] = test system: ivyleaf morningglory (Ipomoea hederacea, IPOHE); assay: as above; conditions: post-emerge, 14 days after application, rating scale 0-100
Outline: as §3

[17] = test system: johnsongrass (Sorghum halepense, SORHA); assay: as above; conditions: post-emerge, 14 days after application, rating scale 0-100
Outline: as §3

[18] = test system: lambsquarters (Chenopodium album, CHEAL); assay: as above; conditions: post-emerge, 14 days after application, rating scale 0-100
Outline: as §3

[19] = test system: large crabgrass (Digitaria sanguinalis, DIGSA); assay: as above; conditions: post-emerge, 14 days after application, rating scale 0-100
Outline: as §3

[20] = test system: redroot pigweed (Amaranthus retroflexus, AMARE); assay: as above; conditions: post-emerge, 14 days after application, rating scale 0-100
Outline: as §3

[21] = test system: sicklepod (Cassia obtusifolia, CASOB); assay: as above; conditions: post-emerge, 14 days after application, rating scale 0-100
Outline: as §3

[22] = test system: velvetleaf (Abutilon theophrasti, ABUTH); assay: as above; conditions: post-emerge, 14 days after application, rating scale 0-100
Outline: as §3

[23] = test system: field corn (Zea mays L., var. Dekalb 535, CORN); assay: Post-emerge test, crop safety; conditions: post-emerge, 14 days after application, rating scale 0-100
Outline: as §1

[24] = test system: upland rice (Oryza sp., var. Tebonnet, RICE); assay: Post-emerge test, crop safety; conditions: post-emerge, 14 days after application, rating scale 0-100
Outline: as §1

For `COc1c(Cl)cc(F)c(-n2c(=O)cc(C(F)(F)F)n(C)c2=O)c1NC(=O)c1c(F)c(F)c(F)c(F)c1F` [2-52], the “Pre-emerge Herbicidal Activity, phytotoxicity rating (0-100), AMARE” value (from here on “Pre-emerge Herbicidal Activity … AMARE”) ([1]; 63 g ai/ha) was 100, the “Pre-emerge Herbicidal Activity, phytotoxicity rating (0-100), ECHCG” value (“Pre-emerge Herbicidal Activity … ECHCG” for short) ([2]; 63 g ai/ha) was 0 and the “Pre-emerge Herbicidal Activity, phytotoxicity rating (0-100), AMBEL” value (“Pre-emerge Herbicidal Activity … AMBEL” for short) ([3]; 63 g ai/ha) was 0. For the same molecule, the “Pre-emerge Herbicidal Activity, phytotoxicity rating (0-100), SETVI” value (“Pre-emerge Herbicidal Activity … SETVI” for short) ([4]; 63 g ai/ha) was 40, the “Pre-emerge Herbicidal Activity, phytotoxicity rating (0-100), IPOHE” value (“Pre-emerge Herbicidal Activity … IPOHE” for short) ([5]; 63 g ai/ha) was 0 and the “Pre-emerge Herbicidal Activity, phytotoxicity rating (0-100), SORHA” value (“Pre-emerge Herbicidal Activity … SORHA” for short) ([6]; 63 g ai/ha) was 0. The “Pre-emerge Herbicidal Activity, phytotoxicity rating (0-100), CHEAL” value (“Pre-emerge Herbicidal Activity … CHEAL” for short) ([7]; 63 g ai/ha) was 50, the “Pre-emerge Herbicidal Activity, phytotoxicity rating (0-100), DIGSA” value (“Pre-emerge Herbicidal Activity … DIGSA” for short) ([8]; 63 g ai/ha) was 0 and the “Pre-emerge Herbicidal Activity, phytotoxicity rating (0-100), CASOB” value (“Pre-emerge Herbicidal Activity … CASOB” for short) ([9]; 63 g ai/ha) was 0. For the same molecule, the “Pre-emerge Herbicidal Activity, phytotoxicity rating (0-100), ABUTH” value (“Pre-emerge Herbicidal Activity … ABUTH” for short) ([10]; 63 g ai/ha) was 10, the “Pre-emerge phytotoxicity rating (0-100), crop damage, CORN” value (“Pre-emerge phytotoxicity rating … CORN” for short) ([11]; 63 g ai/ha) was 0 and the “Pre-emerge phytotoxicity rating (0-100), crop damage, RICE” value (shortened to “Pre-emerge phytotoxicity rating … RICE”) ([12]; 63 g ai/ha) was 0. For the same molecule, the “phytotoxicity rating ECHCG” value ([13]; 63 g ai/ha) was 0, the “phytotoxicity rating AMBEL” value ([14]; 63 g ai/ha) was 20 and the “phytotoxicity rating SETVI” value ([15]; 63 g ai/ha) was 0. The “phytotoxicity rating IPOHE” value ([16]; 63 g ai/ha) was 10, the “phytotoxicity rating SORHA” value ([17]; 63 g ai/ha) was 0 and the “phytotoxicity rating CHEAL” value ([18]; 63 g ai/ha) was 10. The “phytotoxicity rating DIGSA” value ([19]; 63 g ai/ha) was 0, the “phytotoxicity rating AMARE” value ([20]; 63 g ai/ha) was 30 and the “phytotoxicity rating CASOB” value ([21]; 63 g ai/ha) was 0. The “phytotoxicity rating ABUTH” value ([22]; 63 g ai/ha) was 30, the “phytotoxicity rating CORN” value ([23]; 63 g ai/ha) was 0 and the “phytotoxicity rating RICE” value ([24]; 63 g ai/ha) was 0.
For `COc1c(Cl)cc(F)c(-n2c(=O)cc(C(F)(F)F)n(C)c2=O)c1NC(=O)c1ccc(I)cc1` [2-66], the “Pre-emerge Herbicidal Activity … AMARE” value ([1]; 63 g ai/ha) was 100, the “Pre-emerge Herbicidal Activity … AMARE” value ([1]; 250 g ai/ha) was 100 and the “Pre-emerge Herbicidal Activity … ECHCG” value ([2]; 63 g ai/ha) was 0. For the same molecule, the “Pre-emerge Herbicidal Activity … ECHCG” value ([2]; 250 g ai/ha) was 60, the “Pre-emerge Herbicidal Activity … AMBEL” value ([3]; 63 g ai/ha) was 0 and the “Pre-emerge Herbicidal Activity … AMBEL” value ([3]; 250 g ai/ha) was 60. For the same molecule, the “Pre-emerge Herbicidal Activity … SETVI” value ([4]; 63 g ai/ha) was 95, the “Pre-emerge Herbicidal Activity … SETVI” value ([4]; 250 g ai/ha) was 100 and the “Pre-emerge Herbicidal Activity … IPOHE” value ([5]; 63 g ai/ha) was 40. For the same molecule, the “Pre-emerge Herbicidal Activity … IPOHE” value ([5]; 250 g ai/ha) was 80, the “Pre-emerge Herbicidal Activity … SORHA” value ([6]; 63 g ai/ha) was 20 and the “Pre-emerge Herbicidal Activity … SORHA” value ([6]; 250 g ai/ha) was 95. For the same molecule, the “Pre-emerge Herbicidal Activity … CHEAL” value ([7]; 63 g ai/ha) was 100, the “Pre-emerge Herbicidal Activity … CHEAL” value ([7]; 250 g ai/ha) was 100 and the “Pre-emerge Herbicidal Activity … DIGSA” value ([8]; 63 g ai/ha) was 60. The “Pre-emerge Herbicidal Activity … DIGSA” value ([8]; 250 g ai/ha) was 99, the “Pre-emerge Herbicidal Activity … CASOB” value ([9]; 63 g ai/ha) was 35 and the “Pre-emerge Herbicidal Activity … CASOB” value ([9]; 250 g ai/ha) was 90. The “Pre-emerge Herbicidal Activity … ABUTH” value ([10]; 63 g ai/ha) was 100, the “Pre-emerge Herbicidal Activity … ABUTH” value ([10]; 250 g ai/ha) was 100 and the “Pre-emerge phytotoxicity rating … CORN” value ([11]; 63 g ai/ha) was 0. For the same molecule, the “Pre-emerge phytotoxicity rating … CORN” value ([11]; 250 g ai/ha) was 15, the “Pre-emerge phytotoxicity rating … RICE” value ([12]; 63 g ai/ha) was 10 and the “Pre-emerge phytotoxicity rating … RICE” value ([12]; 250 g ai/ha) was 60. For the same molecule, the “phytotoxicity rating ECHCG” value ([13]; 63 g ai/ha) was 70, the “phytotoxicity rating ECHCG” value ([13]; 250 g ai/ha) was 50 and the “phytotoxicity rating AMBEL” value ([14]; 63 g ai/ha) was 100. For the same molecule, the “phytotoxicity rating AMBEL” value ([14]; 250 g ai/ha) was 75, the “phytotoxicity rating SETVI” value ([15]; 63 g ai/ha) was 90 and the “phytotoxicity rating SETVI” value ([15]; 250 g ai/ha) was 80. The “phytotoxicity rating IPOHE” value ([16]; 63 g ai/ha) was 100, the “phytotoxicity rating IPOHE” value ([16]; 250 g ai/ha) was 90 and the “phytotoxicity rating SORHA” value ([17]; 63 g ai/ha) was 10. For the same molecule, the “phytotoxicity rating SORHA” value ([17]; 250 g ai/ha) was 50, the “phytotoxicity rating CHEAL” value ([18]; 63 g ai/ha) was 100 and the “phytotoxicity rating CHEAL” value ([18]; 250 g ai/ha) was 100. For the same molecule, the “phytotoxicity rating DIGSA” value ([19]; 63 g ai/ha) was 10, the “phytotoxicity rating DIGSA” value ([19]; 250 g ai/ha) was 20 and the “phytotoxicity rating AMARE” value ([20]; 63 g ai/ha) was 100. The “phytotoxicity rating AMARE” value ([20]; 250 g ai/ha) was 100, the “phytotoxicity rating CASOB” value ([21]; 63 g ai/ha) was 100 and the “phytotoxicity rating CASOB” value ([21]; 250 g ai/ha) was 70. The “phytotoxicity rating ABUTH” value ([22]; 63 g ai/ha) was 100, the “phytotoxicity rating ABUTH” value ([22]; 250 g ai/ha) was 100 and the “phytotoxicity rating CORN” value ([23]; 63 g ai/ha) was 15. For the same molecule, the “phytotoxicity rating CORN” value ([23]; 250 g ai/ha) was 70, the “phytotoxicity rating RICE” value ([24]; 63 g ai/ha) was 50 and the “phytotoxicity rating RICE” value ([24]; 250 g ai/ha) was 90.
